# According to patent US20160120863A1, “SLC2A TRANSPORTER INHIBITORS” (IOMET PHARMA LTD., priority 2013, published 2016):
# Target: T1, human GLUT1 (Homo sapiens, UniProt P11166)
# T1 construct: expressed in transfected cells
# T1 sequence (P11166 1-492): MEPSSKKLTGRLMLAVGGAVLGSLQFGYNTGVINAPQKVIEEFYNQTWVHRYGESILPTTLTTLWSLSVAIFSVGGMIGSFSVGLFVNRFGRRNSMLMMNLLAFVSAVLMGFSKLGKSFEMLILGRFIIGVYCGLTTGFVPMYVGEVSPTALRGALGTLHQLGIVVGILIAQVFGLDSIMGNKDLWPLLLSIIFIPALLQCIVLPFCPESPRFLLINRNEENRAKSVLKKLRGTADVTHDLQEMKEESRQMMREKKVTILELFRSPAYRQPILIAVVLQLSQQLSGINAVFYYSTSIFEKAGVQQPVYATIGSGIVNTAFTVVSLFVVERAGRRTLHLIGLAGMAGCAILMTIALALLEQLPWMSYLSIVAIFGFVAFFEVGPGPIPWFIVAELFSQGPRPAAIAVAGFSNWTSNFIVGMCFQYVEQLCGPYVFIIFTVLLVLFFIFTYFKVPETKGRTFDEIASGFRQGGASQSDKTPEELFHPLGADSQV
# Experiment: [3H]-deoxy-D-glucose uptake assay, GLUT1
# Format: cell-based
# Settings: [3H]-deoxy-D-glucose uptake in HEK293 cells stably expressing human GLUT1
# Experimental: HEK293 cells were engineered to stably express either human GLUT1, GLUT2, GLUt3 or GLUT4 by transfection with the pReceiver-Lv105 plasmid, containing either hGLUT1, hGLUT2, hGLUT3, or hGLUT4 gene constructs with lipofectamine 2000, hGLUT1- hGLUT2- hGLUT3- or hGLUT4-overexpressing polyclonal populations were isolated under purinomycin selective pressure (1 μg/ml) and maintained in Dulbecco's modified Eagle's medium supplemented with 1 μg/ml purinomycin+10% foetal bovine serum (FBS).
# 60,000 cells per well were seeded overnight into poly-D-lysine coasted 96-well plates. […] 90 μl of test compounds were added in glucose-free uptake buffer and cells were incubated at 37° C. for 30 min.
# Cells were then washed twice with ice-cold PBS and 100 μl of Microscint-20 was added per well. Glucose uptake was quantified with a scintillation counter. The half maximal inhibitory concentration (IC50) (a measure of the effectiveness of the test compound in inhibiting glucose uptake) was determined.
row,Compound,GLUT1 pIC50
1,Clc1ccc(-c2nc3ccc(-c4ccccc4)cn3c2CN2CCCCC2)cc1 [Compound 98],+ (pIC50 4.00-4.99)
2,Clc1ccc(-c2nc3ccc(C4CCCC4)cn3c2CN2CCOCC2)cc1 [Compound 240],++ (pIC50 5.00-5.99)
3,O=C(Cc1ccc(F)cc1)N1CCN(Cc2c(-c3ccc(Cl)cc3)nc3ccc(-c4ccccc4)cn23)CC1 [Compound 63],++ (pIC50 5.00-5.99)
4,COc1cccc(-c2nc3ccc(-c4ccccc4)cn3c2CN2CCN(C(=O)c3cccc(F)c3)CC2)c1 [Compound 52],+++ (pIC50 ≧ 6.00)
5,Cn1cc(C(=O)N2CCN(Cc3c(-c4ccc(Cl)cc4)nc4ccc(-c5ccccc5)cn34)CC2)cn1 [Compound 243],+++ (pIC50 ≧ 6.00)
6,Clc1ccc(-c2nc3ccc(C4CCOCC4)cn3c2CN2CCOCC2)cc1 [Compound 237],++ (pIC50 5.00-5.99)
7,CC(=O)N1CCN(Cc2c(-c3ccc(Cl)cc3)nc3ccc(-c4ccccc4)cn23)CC1 [Compound 61],+++ (pIC50 ≧ 6.00)
8,CS(=O)(=O)Nc1ccc2nc(-c3ccc(Cl)cc3)c(CN3CCNC(=O)C3)n2c1 [Compound 289],+++ (pIC50 ≧ 6.00)
9,Clc1ccc(-c2nc3ccc(-c4nccs4)cn3c2CN2CCOCC2)cc1 [Compound 287],+++ (pIC50 ≧ 6.00)
10,Clc1ccc(-c2nc3ccc(Cl)cn3c2CN2CCSCC2)cc1 [Compound 4],+ (pIC50 4.00-4.99)
11,COc1cccc(-c2nc3ccc(-c4ccccc4)cn3c2CN2CCN(C(=O)c3cccs3)CC2)c1 [Compound 20],+++ (pIC50 ≧ 6.00)
12,O=C(C1CCCC1)N1CCN(Cc2c(-c3ccc([N+](=O)[O-])cc3)nc3ccc(-c4ccccc4)cn23)CC1 [Compound 24],+++ (pIC50 ≧ 6.00)
13,NC1CCN(Cc2c(-c3ccc(Cl)cc3)nc3ccc(-c4ccccc4)cn23)CC1 [Compound 197],+ (pIC50 4.00-4.99)
14,CC(=O)N1CCN(Cc2c(-c3ccc(Cl)cc3)nc3ccc(C4CC4)cn23)CC1 [Compound 194],++ (pIC50 5.00-5.99)
15,CN1CCN(Cc2c(-c3ccc(Cl)cc3)nc3ccc(-c4ccccc4)cn23)CC1=O [Compound 248],++ (pIC50 5.00-5.99)
16,CC(=O)N1CCN(Cc2c(-c3ccc(Cl)cc3)nc3ccc(N)cn23)CC1 [Compound 276],+− (pIC50 < 4.00)
17,O=C(c1ccc(=O)[nH]c1)N1CCN(Cc2c(-c3ccc(Cl)cc3)nc3ccc(-c4ccccc4)cn23)CC1 [Compound 230],+++ (pIC50 ≧ 6.00)
18,O=C(c1cccs1)N1CCN(Cc2c(-c3ccc([N+](=O)[O-])cc3)nc3ccc(-c4ccccc4)cn23)CC1 [Compound 13],+++ (pIC50 ≧ 6.00)
19,Clc1ccc(-c2nc3ccc(-c4cccs4)cn3c2CN2CCOCC2)cc1 [Compound 119],++ (pIC50 5.00-5.99)
20,CC(C)(C)OC(=O)N1CCN(C(=O)c2c(-c3ccc(Cl)cc3)nc3ccc(-c4ccccc4)cn23)CC1 [Compound 290],+− (pIC50 < 4.00)
21,Cn1ccnc1C(=O)N1CCN(Cc2c(-c3ccc(Cl)cc3)nc3ccc(-c4ccccc4)cn23)CC1 [Compound 246],++ (pIC50 5.00-5.99)
22,COc1ccc(C(=O)N2CCN(Cc3c(-c4ccc(F)cc4)nc4ccc(-c5ccccc5)cn34)CC2)cc1 [Compound 70],+++ (pIC50 ≧ 6.00)
23,Clc1ccc(-c2nc3ccc(Cl)cn3c2CN2CCCCC2)cc1 [Compound 5],+ (pIC50 4.00-4.99)
24,Clc1ccc(-c2nc3ccccn3c2CN2CCOCC2)cc1 [Compound 3],++ (pIC50 5.00-5.99)
25,O=C(c1cnccn1)N1CCN(Cc2c(-c3ccc(Cl)cc3)nc3ccc(-c4ccccc4)cn23)CC1 [Compound 181],+++ (pIC50 ≧ 6.00)
26,COc1ccc(NC(=O)N2CCN(Cc3c(-c4ccc(Cl)cc4)nc4ccc(-c5ccccc5)cn34)CC2)cc1 [Compound 68],+ (pIC50 4.00-4.99)
27,CC(=O)N1CCN(Cc2c(-c3ccc(Cl)cc3)nc3ccc(-c4ncon4)cn23)CC1 [Compound 270],+++ (pIC50 ≧ 6.00)

row,Compound,GLUT1 pIC50
1,COc1cccc(-c2nc3ccc(-c4ccccc4)cn3c2CN2CCN(C(=O)C3CC3)CC2)c1 [Compound 26],++ (pIC50 5.00-5.99)
2,CCS(=O)(=O)N1CCN(Cc2c(-c3cccc(OC)c3)nc3ccc(-c4ccccc4)cn23)CC1 [Compound 25],++ (pIC50 5.00-5.99)
3,FC(F)(F)Oc1ccccc1-c1ccc2nc(-c3ccc(Cl)cc3)c(CN3CCOCC3)n2c1 [Compound 153],+− (pIC50 < 4.00)
4,O=C(O)C1CCN(Cc2c(-c3ccc(Cl)cc3)nc3ccc(-c4ccccc4)cn23)CC1 [Compound 182],+− (pIC50 < 4.00)
5,O=C(c1cnco1)N1CCN(Cc2c(-c3ccc(Cl)cc3)nc3ccc(-c4ccccc4)cn23)CC1 [Compound 233],+++ (pIC50 ≧ 6.00)
6,O=C1CN(Cc2c(-c3ccc(Cl)cc3)nc3cnc(C4CC4)cn23)CCN1 [Compound 288],+++ (pIC50 ≧ 6.00)
7,CS(=O)(=O)Nc1ccc2nc(-c3ccc(Cl)cc3)c(CN3CCOCC3)n2c1 [Compound 215],++ (pIC50 5.00-5.99)
8,O=C(O)CN1CCN(Cc2c(-c3ccc(Cl)cc3)nc3ccc(-c4ccccc4)cn23)CC1 [Compound 223],+− (pIC50 < 4.00)
9,O=C(c1c(-c2ccc(Cl)cc2)nc2ccc(-c3ccccc3)cn12)N1CCOCC1 [Compound 282],+− (pIC50 < 4.00)
10,O=C(C1CC1)N1CCN(Cc2c(-c3cccc([N+](=O)[O-])c3)nc3ccc(-c4ccccc4)cn23)CC1 [Compound 56],++ (pIC50 5.00-5.99)
11,COc1cccc(-c2nc3ccc(-c4ccccc4Cl)cn3c2CN2CCN(C(=O)C3CCC3)CC2)c1 [Compound 190],+++ (pIC50 ≧ 6.00)
12,CS(=O)(=O)Nc1ccc2nc(-c3ccc(Cl)cc3)c(CN3CCN(C(=O)c4cscn4)CC3)n2c1 [Compound 279],+++ (pIC50 ≧ 6.00)
13,c1ccc(-c2ccc3nc(C4CCCCC4)c(CN4CCOCC4)n3c2)cc1 [Compound 173],++ (pIC50 5.00-5.99)
14,O=C(c1cccc(F)c1)N1CCCN(Cc2c(-c3ccc(Cl)cc3)nc3ccc(-c4ccccc4)cn23)CC1 [Compound 169],++ (pIC50 5.00-5.99)
15,CCS(=O)(=O)N1CCN(Cc2c(-c3cccc([N+](=O)[O-])c3)nc3ccc(-c4ccccc4)cn23)CC1 [Compound 9],++ (pIC50 5.00-5.99)
16,O=C1CN(Cc2c(-c3ccc(Cl)cc3)nc3ccc(-c4ccccc4)cn23)CCN1 [Compound 130],++ (pIC50 5.00-5.99)
17,CN(C)C(=O)CNCc1c(-c2ccc(Cl)cc2)nc2ccc(-c3ccccc3)cn12 [Compound 198],+ (pIC50 4.00-4.99)
18,COc1cccc(-c2nc3ccc(C4CC4)cn3c2CN2CCN(C(=O)C3CCC3)CC2)c1 [Compound 207],+++ (pIC50 ≧ 6.00)
19,O=C(COCc1ccccc1)N1CCN(Cc2c(-c3ccc(Cl)cc3)nc3ccc(-c4ccccc4)cn23)CC1 [Compound 18],+++ (pIC50 ≧ 6.00)
20,O=C(c1cocn1)N1CCN(Cc2c(-c3ccc(Cl)cc3)nc3ccc(-c4ccccc4)cn23)CC1 [Compound 229],+++ (pIC50 ≧ 6.00)
21,O=C(c1ccncc1)N1CCN(Cc2c(-c3ccc(Cl)cc3)nc3ccc(-c4c(F)cccc4F)cn23)CC1 [Compound 235],+++ (pIC50 ≧ 6.00)
22,COc1cccc(C(=O)N2CCN(Cc3c(-c4ccc(Cl)cc4)nc4ccc(-c5ccccc5)cn34)CC2)c1 [Compound 129],+++ (pIC50 ≧ 6.00)
23,CCNC(=O)c1ccc2nc(-c3ccc(Cl)cc3)c(CN3CCOCC3)n2c1 [Compound 118],+ (pIC50 4.00-4.99)
24,O=C(CO)N1CCN(Cc2c(-c3ccc(Cl)cc3)nc3ccc(-c4ccccc4)cn23)CC1 [Compound 277],+++ (pIC50 ≧ 6.00)
25,Fc1cccc(-c2ccc3nc(-c4ccc(Cl)cc4)c(CN4CCOCC4)n3c2)c1 [Compound 81],+ (pIC50 4.00-4.99)
26,Clc1ccc(-c2nc3ccc(-c4nnn[nH]4)cn3c2CN2CCOCC2)cc1 [Compound 180],+− (pIC50 < 4.00)
27,Clc1ccc(-c2nc3cnc(-c4ccccc4)cn3c2CN2CCOCC2)cc1 [Compound 75],+++ (pIC50 ≧ 6.00)
